Results reported in publication PMC9250534, “Synthesis and direct assay of large macrocycle diversities by combinatorial late-stage modification at picomole scale” (Nature Communications, 2022).
Numbered stars: 1 amine (or outer) side, 2 acyl side, 3 side chain; on linkers, the order of the positions; unused ones are H or OH. Bridge positions count the residues as written; N and C are the ends. Square brackets hold non-standard residues; d marks the D form. Side chains are listed from the residue outwards. Peptide text beside a SMILES is read from it. * marks the point of attachment. ξ: configuration not given here. ξPro(4ξ-NHCOC6H4-4-Cl) = O=C(NC1CNC(C(=O)O)C1)c1ccc(Cl)cc1; Benzoyl(4-Cl) = O=C(c1ccc(Cl)cc1)*; X5 = O=C(c1cc2cc(Cl)ccc2[nH]1)*; Cysteamide = C(CS[*:3])N[*:1]; X3 = O=C(Cc1c[nH]c2ccccc12)*; X12 = Cc1nc2ccccn2c1C(=O)*; X1 = O=C(/C=C/c1ccccc1)*; Api = NC1(C(=O)O)CCNCC1; Dap = NC[C@H](N)C(=O)O; Inp = O=C(O)C1CCNCC1; Ms = CS(=O)(=O)*; Mpa = O=C(O)CCS

Target: MDM2 (Homo sapiens, UniProt Q00987)
Test: MDM2 binding screen: displacement of fluorescent p53 peptide probe FP53 (fluorescence polarization)
Conditions: for fraction fluorescent probe displaced, Screen: initial screen; for fraction fluorescent probe displaced, Screen / fraction fluorescent probe displaced, Replicate: crude macrocycle reactions
How it was run: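 Macrocycle reaction products at a final 10 µM were tested for displacement of a p53-based fluorescent peptide from human MDM2. Fluorescence anisotropy (ex 485/em 535 nm) was read once per macrocycle at 25 °C.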

[1] = 10 µM macrocycle concentration, crude acylated macrocycle (scaffold Mpa-AA1-AA2-AA3 x carboxylic acid), p53-based fluorescent peptide, human MDM2

Sequence of MDM2 (Q00987 whole entry): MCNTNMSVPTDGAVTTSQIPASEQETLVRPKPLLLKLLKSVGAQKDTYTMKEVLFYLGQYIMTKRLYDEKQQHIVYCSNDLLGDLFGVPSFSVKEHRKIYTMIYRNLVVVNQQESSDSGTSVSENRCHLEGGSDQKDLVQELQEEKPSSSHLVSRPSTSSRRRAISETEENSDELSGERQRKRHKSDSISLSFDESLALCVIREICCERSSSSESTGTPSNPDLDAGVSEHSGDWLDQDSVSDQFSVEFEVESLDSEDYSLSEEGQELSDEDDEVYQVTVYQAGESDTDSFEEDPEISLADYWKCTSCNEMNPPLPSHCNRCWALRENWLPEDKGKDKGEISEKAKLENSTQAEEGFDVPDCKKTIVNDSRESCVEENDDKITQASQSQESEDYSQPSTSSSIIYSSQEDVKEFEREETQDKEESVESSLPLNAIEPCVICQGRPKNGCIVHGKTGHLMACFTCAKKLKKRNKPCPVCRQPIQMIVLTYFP

Structure (SMILES)	fraction fluorescent probe displaced, Screen (Acid 25)	fraction fluorescent probe displaced, Replicate (Acid 25, replicate)	fraction fluorescent probe displaced, Screen (Acid 91)	fraction fluorescent probe displaced, Replicate (Acid 91, replicate)	other results
O=C1CCSSCCNC(=O)c2cccc(c2)CNC(=O)[C@H](Cc2c[nH]c3ccccc23)NC(=O)[C@H](CNC(=O)c2ccc(Cl)s2)N1 [X D3 W B5 Acid 14]	–	–	–	–	fraction fluorescent probe displaced, Screen (Acid 14): 0.26; fraction fluorescent probe displaced, Replicate (Acid 14, replicate): 0.22
O=C(NC[C@@H]1NC(=O)[C@@H]2CCCN2C(=O)CCSSCCNC(=O)[C@H](Cc2c[nH]c3ccccc23)NC1=O)c1cc2cc(Cl)ccc2[nH]1 [X-B1-D3-W + A39] ([Mpa]P[Dap](X5)W-Cysteamide; disulfide 1-C)	–	–	–	–	fraction fluorescent probe displaced [1]: 0.06212
Cc1nc2ccccn2c1C(=O)NC[C@@H]1NC(=O)[C@@H]2CCCN2C(=O)CCSSCCNC(=O)[C@H](Cc2c[nH]c3ccccc23)NC1=O [X-B1-D3-W + A61] ([Mpa]P[Dap](X12)W-Cysteamide; disulfide 1-C)	–	–	–	–	fraction fluorescent probe displaced [1]: 0.006636
O=C(NC1CC2C(=O)NCCSSCCC(=O)N3CCCC3C(=O)NC(Cc3c[nH]c4ccccc34)C(=O)N2C1)c1ccc(Cl)cc1 (centres unmarked) [X B1 W D5 Acid 25] ([Mpa]PW[ξPro(4ξ-NHCOC6H4-4-Cl)]-Cysteamide; disulfide 1-C; configuration not given here)	0.15	0.20	–	–	–
O=C1CCSSCCNC(=O)[C@H](Cc2ccccc2)NC(=O)C2(CCN(C(=O)c3ccc(Cl)s3)CC2)NC(=O)CCN1 [X B2 D6 F Acid 14]	–	–	–	–	fraction fluorescent probe displaced, Screen (Acid 14): 0.13; fraction fluorescent probe displaced, Replicate (Acid 14, replicate): 0.0229
O=C1CCNC(=O)C2(CCN(C(=O)c3ccc(Cl)cc3)CC2)NC(=O)CCSSCCNC(=O)[C@H](Cc2ccccc2)N1 [X D6 B2 F Acid 25]	0.0244	0.0211	–	–	–
O=C1CCNC(=O)[C@H](Cc2ccccc2)NC(=O)CCSSCCNC(=O)[C@H](CNC(=O)c2ccc(Cl)s2)N1 [X F B2 D3 Acid 14]	–	–	–	–	fraction fluorescent probe displaced, Screen (Acid 14): 0.14; fraction fluorescent probe displaced, Replicate (Acid 14, replicate): 0.12
O=C(C=Cc1ccccc1)NC1CC2C(=O)NCCSSCCC(=O)NCCC(=O)NC(Cc3ccccc3)C(=O)N2C1 (centres unmarked) [X B2 F D5 Acid 91]	–	–	0.00268	-0.08	–
O=C1CCSSCCNC(=O)C(Cc2ccccc2)NC(=O)C(CNC(=O)c2ccc(Cl)s2)NC(=O)c2cccc(c2)CN1 (centres unmarked) [X B5 D3 F Acid 14]	–	–	–	–	fraction fluorescent probe displaced, Screen (Acid 14): -0.00483; fraction fluorescent probe displaced, Replicate (Acid 14, replicate): 0.12
O=C1CCSSCCNC(=O)c2cccc(c2)CNC(=O)[C@H](Cc2c[nH]c3ccccc23)NC(=O)C2(CCN(C(=O)/C=C/c3ccccc3)CC2)N1 [X D6 W B5 Acid 91]	–	–	-0.05	0.07	–
O=C1CCSSCCNC(=O)C2CN(C(=O)c3ccc(Cl)cc3)CCN2C(=O)C(Cc2c[nH]c3ccccc23)NC(=O)CCN1 (centres unmarked) [X B2 W D7 Acid 25]	0.0569	0.10	–	–	–
CS(=O)(=O)N1CCC(C(=O)NC[C@@H]2NC(=O)[C@@H]3CCCN3C(=O)CCSSCCNC(=O)[C@H](Cc3ccccc3)NC2=O)CC1 [X-B1-D3-F + A57] ([Mpa]P[Dap]([Inp-Ms])F-Cysteamide; disulfide 1-C)	–	–	–	–	fraction fluorescent probe displaced [1]: -0.1145
O=C1CCSSCCNC(=O)[C@@H]2CCCN2C(=O)[C@H](Cc2c[nH]c3ccccc23)NC(=O)C2(CCN(C(=O)c3ccc(Cl)cc3)CC2)N1 [X D6 W B1 Acid 25] ([Mpa][Api](Benzoyl(4-Cl))WP-Cysteamide; disulfide 1-C)	0.25	0.20	–	–	–
O=C1CCSSCCNC(=O)C2(CCN(C(=O)c3ccc(Cl)s3)CC2)NC(=O)c2cccc(c2)CNC(=O)C(Cc2ccccc2)N1 (centres unmarked) [X F B5 D6 Acid 14]	–	–	–	–	fraction fluorescent probe displaced, Screen (Acid 14): 0.11; fraction fluorescent probe displaced, Replicate (Acid 14, replicate): 0.10
O=C1CCSSCCNC(=O)[C@H](CNC(=O)c2ccc(Cl)cc2)NC(=O)[C@H](Cc2ccccc2)NC(=O)c2cccc(c2)CN1 [X B5 F D3 Acid 25]	0.09	0.0465	–	–	–
O=C(Cc1c[nH]c2ccccc12)NC[C@@H]1NC(=O)[C@@H]2CCCN2C(=O)CCSSCCNC(=O)[C@H](Cc2ccccc2)NC1=O [X-B1-D3-F + A12] ([Mpa]P[Dap](X3)F-Cysteamide; disulfide 1-C)	–	–	–	–	fraction fluorescent probe displaced [1]: 0.03497
O=C(/C=C/c1ccccc1)NC[C@@H]1NC(=O)CCSSCCNC(=O)[C@H](Cc2ccccc2)NC(=O)c2cccc(c2)CNC1=O [X D3 B5 F Acid 91]	–	–	-0.18	-0.0333	–
O=C1CCSSCCNC(=O)[C@H]2CCCN(C2)C(=O)[C@H](Cc2ccccc2)NC(=O)C2(CCN(C(=O)/C=C/c3ccccc3)CC2)N1 [X D6 F B4 + Acid 91]	–	–	–	–	fraction fluorescent probe displaced (crude reaction of macrocycle scaffold with Acid 91, (initial screen)): 0.03; fraction fluorescent probe displaced (crude reaction of macrocycle scaffold with Acid 91, replicate): -0.00827
O=C1CCSSCCNC(=O)[C@@H]2C[C@H](NC(=O)c3ccc(Cl)s3)CN2C(=O)[C@H](Cc2ccccc2)NC(=O)c2cccc(c2)CN1 [X B5 F D5 Acid 14]	–	–	–	–	fraction fluorescent probe displaced, Screen (Acid 14): 0.0241; fraction fluorescent probe displaced, Replicate (Acid 14, replicate): -0.00432
O=C(/C=C/c1ccccc1)NC[C@@H]1NC(=O)c2cccc(c2)CNC(=O)CCSSCCNC(=O)[C@H](Cc2ccccc2)NC1=O [X B5 D3 F Acid 91]	–	–	-0.05	0.0168	–
O=C(/C=C/c1ccccc1)NC[C@@H]1NC(=O)[C@@H]2CCCN2C(=O)CCSSCCNC(=O)[C@H](Cc2ccccc2)NC1=O [X B1 D3 F Acid 91] ([Mpa]P[Dap](X1)F-Cysteamide; disulfide 1-C)	–	–	0.08	0.0168	–
O=C1CCSSCCNC(=O)C2(CCN(C(=O)c3ccc(Cl)s3)CC2)NC(=O)[C@H]2CCCN(C2)C(=O)[C@H](Cc2c[nH]c3ccccc23)N1 [X W B4 D6 Acid 14]	–	–	–	–	fraction fluorescent probe displaced, Screen (Acid 14): 0.17; fraction fluorescent probe displaced, Replicate (Acid 14, replicate): 0.33
O=C(C=Cc1ccccc1)NCC1NC(=O)CCSSCCNC(=O)C(Cc2c[nH]c3ccccc23)NC(=O)c2cccc(c2)CNC1=O (centres unmarked) [X D3 B5 W Acid 91]	–	–	0.08	0.14	–
O=C1CCSSCCNC(=O)[C@@H]2CCCN2C(=O)[C@H](Cc2ccccc2)NC(=O)C2(CCN(C(=O)c3ccc(Cl)cc3)CC2)N1 [X D6 F B1 Acid 25] ([Mpa][Api](Benzoyl(4-Cl))FP-Cysteamide; disulfide 1-C)	0.15	0.22	–	–	–

Continued, in another order:

fraction fluorescent probe displaced, Screen (Acid 25)	fraction fluorescent probe displaced, Replicate (Acid 25, replicate)	fraction fluorescent probe displaced, Screen (Acid 91)	fraction fluorescent probe displaced, Replicate (Acid 91, replicate)	Structure (SMILES)	other results
0.0244	-0.00432	–	–	O=C1CCSSCCNC(=O)[C@@H]2C[C@H](NC(=O)c3ccc(Cl)cc3)CN2C(=O)c2cccc(c2)CNC(=O)[C@H](Cc2ccccc2)N1 [X F B5 D5 Acid 25]	–
0.0244	0.12	–	–	O=C1CCSSCCNC(=O)C2CN(C(=O)c3ccc(Cl)cc3)CCN2C(=O)c2cccc(c2)CNC(=O)C(Cc2c[nH]c3ccccc23)N1 (centres unmarked) [X W B5 D7 Acid 25]	–
–	–	-0.10	-0.0333	O=C1CCSSCCNC(=O)C2CN(C(=O)C=Cc3ccccc3)CCN2C(=O)c2cccc(c2)CNC(=O)C(Cc2ccccc2)N1 (centres unmarked) [X F B5 D7 Acid 91]	–
–	–	0.32	0.0168	O=C1CCNC(=O)C2(CCN(C(=O)C=Cc3ccccc3)CC2)NC(=O)C(Cc2c[nH]c3ccccc23)NC(=O)CCSSCCN1 (centres unmarked) [X W D6 B2 Acid 91]	–
–	–	-0.05	-0.11	O=C(C=Cc1ccccc1)NC1CC2C(=O)N3CCCC3C(=O)NCCSSCCC(=O)NC(Cc3ccccc3)C(=O)N2C1 (centres unmarked) [X F D5 B1 Acid 91]	–
–	–	0.0563	-0.00827	O=C1CCSSCCNC(=O)C2(CCN(C(=O)/C=C/c3ccccc3)CC2)NC(=O)[C@H]2CCCN(C2)C(=O)[C@H](Cc2ccccc2)N1 [X F B4 D6 Acid 91]	–
–	–	0.16	0.0168	O=C1CCSSCCNC(=O)C2CN(C(=O)C=Cc3ccccc3)CCN2C(=O)c2cccc(c2)CNC(=O)C(Cc2c[nH]c3ccccc23)N1 (centres unmarked) [X W B5 D7 Acid 91]	–
–	–	0.14	0.0168	O=C1CCSSCCNC(=O)[C@@H]2CCCN2C(=O)C2(CCN(C(=O)/C=C/c3ccccc3)CC2)NC(=O)[C@H](Cc2c[nH]c3ccccc23)N1 [X W D6 B1 Acid 91] ([Mpa]W[Api](X1)P-Cysteamide; disulfide 1-C)	–
0.12	0.17	–	–	O=C1CCSSCCNC(=O)c2cccc(c2)CNC(=O)C(CNC(=O)c2ccc(Cl)cc2)NC(=O)C(Cc2c[nH]c3ccccc23)N1 (centres unmarked) [X W D3 B5 Acid 25]	–
0.28	0.20	–	–	O=C1CCSSCCNC(=O)C2CCCN(C2)C(=O)C2(CCN(C(=O)c3ccc(Cl)cc3)CC2)NC(=O)C(Cc2c[nH]c3ccccc23)N1 (centres unmarked) [X W D6 B4 Acid 25]	–
0.09	0.0465	–	–	O=C1CCSSCCNC(=O)C2(CCN(C(=O)c3ccc(Cl)cc3)CC2)NC(=O)CCNC(=O)[C@H](Cc2c[nH]c3ccccc23)N1 [X W B2 D6 Acid 25]	–
0.15	0.12	–	–	O=C1CCSSCCNC(=O)c2cccc(c2)CNC(=O)C2(CCN(C(=O)c3ccc(Cl)cc3)CC2)NC(=O)C(Cc2c[nH]c3ccccc23)N1 (centres unmarked) [X W D6 B5 Acid 25]	–
